Measurements: US20210353767A1, “COMPOSITIONS AND METHODS FOR DRUG DELIVERY” (NORTH CAROLINA STATE UNIVERSITY, priority 2018, published 2021)
Values joined by “and” are separate entries in the source; they are usually repeats but may differ in a detail not shown here. Equal values may be shown once. Read-outs that look alike come from different tables or passages of the source.

Assays:
[1] = CD1 mice, one month after intradermal injection of 50 μL
Protocol: H&E slides of mouse skin and tissues from 8 mice were analyzed to determine local or distal effects of an injected depot material. All tissues were evaluated by light microscopy and were graded as: “-”=no changes observed in this tissue for any mouse; “0”=a particular change not present; “1”=change is present at slight/minimal severity; “2”=mild severity, “3”=moderate severity; “4” marked severity; “5”=severe. A grade of 1 represents the minimal detectable change and a 5 represents a change judged to be essentially as severe as possible.

KPC 4662 tumors = details: pancreatic tumor after a dose of DBCO-cy7
Protocol: 8 mice were similarly injected with KPC 4662 tumors and allowed to grow over a week until injection of sNHS(N=4) or PBS(N=4). Injection and imaging was performed as described above on the IVIS before and 24 hours after DBCO-cy7 IV injection. Tumors were then explanted imaged to compare to a linear regression alginate gels ROI's that contained the same dose injected IV to obtain a percentage of cy7 captured at the tumor site.
The study employed three tumors injected with a “Click Target” and one control.

[2] = tested on: KPC 4662 pancreatic tumor; details: average of 4 mice
Protocol: Allograft Pancreatic Tumor. KPC 4662 pancreatic tumor cells (5e5) were injected in a 1:1 ratio with PBS:Matrigel(Matrigel Matrix 354234, lot 7205011) into the subcutaneous dorsal flanks of CD57B16 mice.
IVIS imaging (Camera #11219, DW434) was performed right before 100 ul of 50 mg/ml DBCO-cy7 retro orbital injections and imaged 24 hours afterwards when most of the unbound DBCO-cy was cleared from systemic circulation. For the refill dose experiments 9-week-old albino c57b16's from Envigo were used. For all other tumor refills, 9-week-old regular c57s from Envigo were used.

[3] = Brain refills: capture of i.v. DBCO-Cy7 at intracranial azide-sNHS depot; type: in vivo; details: azide-sNHS vs control mice, 24 hours after i.v. administration
Protocol: Representative images of azide-sNHS and control mice after 24 hours after i.v. administration of DBCO-Cy7. The brain was removed and imaged alone.
Quantitation of intracranial ROI radiant efficiency was measured 24 hours after i.v. DBCO-Cy7 administration. Samples show mean+/−SEM. *=p<0.05, **=p<0.01 by Student's T-test.
Brain Refills. For anesthesia, 1-5% isoflurane was administered before procedures as well as continuously through the stereotaxic setup, and 0.5% lidocaine HCL administered subcutaneous under the incision site prior to surgery. 10-week-old CD1 mice were mounted on a kopf stereotaxic head stage using ear bars and a 5 μl Hamilton syringe placed in needle fixture. For surgery, the area to be incised on the head was shaved and washed with 70% alcohol. An incision with a #10 blade was made from posterior to anterior (start of skull to between eyes) and skin pulled away from incision using sterile Q-tips to expose the skull. The syringe needle was adjusted so the tip was at Bregma, position of the stereotaxic device recorded, and then moved to the desired calculated position where a marking will be made with a surgical marker. The experimental coordinates were −2.5M/L, −1A/P, −3D/V. A small hand drill was then used to make a 1-2 mm size hole in the skull for the injection needle. […] Once complete, the mouse skin was joined by VetBond skin glue and monitored post-surgery. […]

[4] = Intradermal tetrazine-sNHS depot, IVIS imaging of TCO-cy5 capture; type: in vivo, mice; details: for Average Radiant Efficiency: average of 4 mice; for Total Radiant Efficiency Measured within Regions of Interest (ROI): before-injection value subtracted, individual mouse
Protocol: 50 μL of 0.05M methyl tetrazine-sNHS ester was dissolved in sterile PBS, and injected intradermally into the dorsal flanks of mice CD1 Charles river mice. The first four images in FIG. 8 are pictures of the four mice treated with the “Click-Target” (tetrazine-sNHS) and the four control mice injected with PBS. The last 4 images in FIG. 8 show the fluorescence observed 24 hours after injection of the “Click Prodrug” (TCO-cy5). The IVIS was adjusted for this cy5 fluorophore. […] This experiment was also performed at 1 week with similar results
The total increase in fluorescence after the TCO-cy5 injection (at 1 day) over the intradermal injection ROI's (total radiant efficiency measurement) subtracting the before tco-cy5 image injection value are included below.
The total increase in fluorescence after the TCO-cy5 injection (at 1 week) over the intradermal injection ROI's (total radiant efficiency measurement) subtracting the before tco-cy5 image injection value are included below.

Molecule: [N-]=[N+]=NCCC(=O)ON1C(=O)CC(S(=O)(=O)O)C1=O (stereo not shown) [Azide sNHS, 3-Azidopropionic Acid Sulfo-NHS ester]
- histologic changes (H&E) versus PBS group [1]: no difference between the two groups
- radiance relative to control (ROI measurements) (KPC 4662 tumors): four times greater
- Average Radiant Efficiency ([2]; 24 hours after first administration of DBCO-cy7): 9.21 × 10^9
- Average Radiant Efficiency ([2]; 24 hours after second administration of DBCO-cy7): 7.26 × 10^9
- Average Radiant Efficiency ([2]; 24 hours after third administration of DBCO-cy7): 4.12 × 10^9

Molecule: C[N+]1=C(C=CC2=CC(=CC=C3N(CCCCCC(=O)NCCCCCC(=O)N4Cc5ccccc5C#Cc5ccccc54)c4ccccc4C3(C)C)CCC2)C(C)(C)c2ccccc21.F[P-](F)(F)(F)(F)F [DBCO-Cy7, Cyanine7 DBCO]
- capture in the brain [3]: click-specific capture

Molecule: methyl tetrazine-sNHS ester
- Average Radiant Efficiency ([4]; TCO-cy5 injection at 1 week): 1.25 × 10^9
- Average Radiant Efficiency ([4]; TCO-cy5 injection at 1 day): 2.72 × 10^9
- Total Radiant Efficiency Measured within Regions of Interest (ROI) ([4]; increase in fluorescence after TCO-cy5 injection at 1 week): 1.12 × 10^9 and 1.57 × 10^9 and 1.31 × 10^9 and 1.01 × 10^9
- Total Radiant Efficiency Measured within Regions of Interest (ROI) ([4]; increase in fluorescence after TCO-cy5 injection at 1 day): 3.64 × 10^9 and 2.40 × 10^9 and 1.92 × 10^9 and 2.90 × 10^9
